Experimental data published in patent US20200347389A1, “COMPOSITIONS AND METHODS FOR GENERATING DIVERSITY AT TARGETED NUCLEIC ACID SEQUENCES” (MONSANTO TECHNOLOGY LLC, priority 2019, published 2020).

How the values were obtained:
rpoB gene [1] = conditions: at eight sites; Garibyan et al.; cited from earlier work
rpoB gene [2] = assay: Deep sequencing of the rpoB fragment from Rif^r colonies; assay type: cell-based, Escherichia coli; conditions: 0.1% and 1% EMS, untargeted dCas9
Method: Ninety-six Rif^r colonies from 0.1% and 1% EMS treatment assays were picked and colony PCR was carried out to amplify the […] rpoB fragment. Approximately 20 μL PCRs reactions were carried out in 96 well plates, using forward and reverse primers comprising Illumina barcoded adaptors and designed to amplify a […] rpoB fragment associated with mutations conferring the Rif^r phenotype. The success of the reactions was checked by running ˜5 μL of 8-12 samples picked from across the 96 wells and running on e-gels. […] After obtaining the raw reads, adaptor sequences were removed with the program Cutadapt (Martin, EMBnet.journal, 2011, [S1], v17, n1, p. pp. 10-12, ISSN 2226-6089) and low quality reads are filtered with Trimmomatic (Version 0.36) (Bolger et al., Bioinformatics, 30:2114 (2014)). The program ‘glsearch’ (Pearson, Methods Mol Biol., 132:185-219 (2000)), was used to map reads to the reference rpoB sequence and to detect substitutions and small INDELs. […]
Individual colonies as well as plate scrapes (pooled colonies) were sequenced. […] Quality reads were obtained from 71 colonies for treatment 1, 92 colonies for treatment 2, and 89 colonies for treatment 3. Quality reads were also obtained from the Plate scrape samples.

rpoB gene [3] = assay: rpoB/Rif^r assay: EMS mutagenesis of E. coli KL16 carrying pNUC-dSpCas9 + pGUIDE-Sp-Zm7.1; assay type: cell-based, Escherichia coli; conditions: for Rif^r CFUs in 5 μL (average) / Rif^r CFUs in 100 μL (average): one hour, cells with pNUC-dCas9 + pGUIDE-Sp-Zm7.1
Excerpt: This example describes the Escherichia coli rpoB gene and Rifampicin-resistant (Rif^r) mutations that map to rpoB as a system to characterize mutation rates and mutation types induced by chemical mutagens.
The E. coli K12 (strain MG1655) rpoB gene (SEQ ID NO: 1) encodes a subunit of the RNA polymerase complex (SEQ ID NO: 2) and is the target of the antibiotic rifampicin, a bacterial transcription inhibitor. A unique feature of the rpoB gene is that at least 69 nucleotide substitutions in 24 amino acid codons can confer the Rif^r phenotype to E. coli. This makes rpoB a useful target for screening and analyzing the type and frequency of nucleotide changes (e.g., additions, deletions, and substitutions induced by mutagens (reviewed in Garibyan et al., 2003, DNA Repair, 2:593-608). Furthermore, a majority of mutations that confer Rifampicin resistance (>90%) map to a relatively small, 268-nucleotide long, region of the rpoB gene. This allows PCR amplification with a single pair of oligonucleotide primers, followed by sequencing, which permits rapid analysis of numerous potential mutations. The aforementioned 268-bp fragment of the E. coli K12 rpoB gene is set forth as SEQ ID NO: 3. […] However, mutants comprising short, in-frame deletions (up to five amino acids) have been found, but at a much lower frequency (see, for example, Jin and Gross, J Mol Biol. 202:45-58 (1988)).
To test the rate and spectrum of mutations induced by EMS on rpoB, an experiment was performed where E. coli KL16 cells were co-transformed with pNUC-dSpCas9 and pGUIDE-Sp-Zm7.1; treated with 0.1% or 1% EMS. Resulting Rif^r mutations were selected and scored. The rpoB gene fragment (SEQ ID NO: 3) was sequenced from each colony and the predominant mutations were identified. As noted above in Example 2, pGUIDE-Sp-Zm7.1 is not expected to target the E. coli chromosome, and thus serves as a negative control.
Approximately 0.7 μL of pNUC-dSpCas9 and pGUIDE-Sp-Zm7.1 plasmid DNAs (approximate concentrations of 50 to 150 ng/μL) were added to 30 μL aliquots of electrocompetent E. coli KL16 cells. The cells and DNA were electroporated in 1 mm gap cuvettes, using Bio-Rad GenePulser II with settings described above in Example 2. Approximately 1 mL of S.O.C. medium was added to the cuvettes, mixed, transferred to culture tubes, and shaken in a 37° C. incubator shaker for ˜90 min at 280 RPM. Approximately 20 μL of the mix was diluted with 380 μL of S.O.C. medium (1:20 dilution), 100 μL was plated on LB plates containing +25 μg/mL Cm, +50 μg/mL Spect antibiotics followed by overnight incubation at 37° C. After overnight growth, the plates contained ˜100-400 uniform single colonies. Four to five single colonies from the plates were picked and mixed in 2.5 mL liquid LB media containing +25 μg/mL Cm, +50 μg/mL Spect. The culture was grown overnight at 37° C. with shaking at 280 RPM. The following day the saturated overnight culture was diluted into 3 mL of fresh LB +25 μg/mL Cm, +50 μg/mL Spect at a 1:20 ratio. After growth for ˜3 hours shaking (280 RPM) at 37° C., the culture was in exponential growth with an A600 absorbance measurement of ˜1. The culture was split into three 1 mL aliquots in Eppendorf tubes, then spun at full speed for one minute. The LB supernatant was removed and the small pellets were resuspended by gentle pipetting into 1 mL PBS and transferred to culture tubes.
Approximately 1 μL of EMS (Sigma M0880) was added to the first tube (0.1% EMS, final conc.) and approximately 10 μL of EMS was added to the second tube (1% EMS, final conc.). The third tube received no EMS (0% EMS). After mixing, the tubes were incubated at 37° C. with shaking for one hour. The 1 mL cultures were transferred back into Eppendorf tubes and spun at full speed for 1 minute. The pellets were washed once with PBS to remove EMS and resuspended in 1 mL LB+25 μg/mL Cm, +50 μg/mL Spect. […]

[4] = EMS-mutated populations; cited from earlier work
DNA = conditions: D832A/E925A (dLbCpf1); D10A/H840A (dSpCas9); cited from earlier work

CCOS(C)(=O)=O [EMS, ethyl methanesulfonate]
mutations identified within the 268-bp stretch of rpoB, all G:C→A:T transitions (rpoB gene [1]): 40
colonies with an in-frame 15 nucleotide deletion (rpoB gene [2]): Four
mutations previously described as inducing the Rif^r phenotype identified in the EMS screen (rpoB gene [2]): ten of the thirteen
increase of mutation rate relative to the spontaneous mutation rate (rpoB gene [3]; 0.1% EMS): ~40 ×
Rif^r CFUs in 5 μL (average) (rpoB gene [3]; 0.1% EMS): 18 CFUs
Rif^r CFUs in 100 μL (average) (rpoB gene [3]; 0.1% EMS): 280 CFUs
increase of mutation rate relative to the spontaneous mutation rate (rpoB gene [3]; 1.0% EMS): ~2600 ×
Rif^r CFUs in 5 μL (average) (rpoB gene [3]; 1% EMS): 1036 CFUs
Rif^r CFUs in 100 μL (average) (rpoB gene [3]; 1% EMS): >10^4 CFUs
modifications that are G:C→A:T base pair transitions [4]: 70% to 99%

dSpCas9: dead SpCas9 with D10A and H840A substitutions (SEQ ID NO: 22)
DNA cleavage activity (DNA): complete abolishment of DNA cleavage activity
